Experimental data reported in patent publication US20230271950A1, “ANTIBACTERIAL PICOLINAMIDE COMPOUNDS” (University of Notre Dame Du Lac, priority 2020, published 2023).
≈ marks a conversion by molar mass, not a printed value. Where two headings read alike, the source gives them in different places.

Tests used:
S. aureus ATCC29213 = test: MIC against MSSA; assay type: cell-based, Staphylococcus aureus; settings: Staphylococcus aureus; MSSA ATCC 29213; Table 10, unit inferred; read-out: Activity (MIC) against S. aureus
E. faecium NCTC7171 = test: MIC against E. faecium; assay type: cell-based, Enterococcus faecium; settings: Enterococcus faecium, NCTC7171; E. faecium NCTC 7171; Table 10, unit inferred; read-out: Activity (MIC) against E. faecium
C. difficile = test: MIC by broth microdilution against C. difficile strains; assay type: cell-based, Clostridioides difficile; settings: for MIC: Clostridioides difficile; for Selectivity: MIC MRSA/MIC C. difficile, Table 3; for MIC C. difficile: ATCC 43255, ribotype 087
MRSA (NRS70, NRS119) = test: MIC against MRSA strains; assay type: cell-based, Staphylococcus aureus; settings: for MIC: Staphylococcus aureus
[1] = ATCC43255, ATCC 43255, ribotype 087, Table 3 (SAR^2 and SAR^3), read-out: MIC C. difficile
[2] = NRS70 strain, Table 3 (SAR^2 and SAR^3), read-out: MIC MRSA
[3] = ATCC43255, ATCC 43255, ribotype 087, Table 2 (SAR^1), read-out: MIC C. difficile
[4] = NRS70 strain, Table 2 (SAR^1), read-out: MIC MRSA
[5] = ATCC43255, C. difficile ATCC 43255, read-out: MIC against C. difficile
[6] = MRSA strain NRS70, read-out: MIC against MRSA

Row | SMILES | MIC (C. difficile; [1]) [µg/mL] | MIC (MRSA (NRS70, NRS119); [2]) [µg/mL] | Selectivity (C. difficile) | further results
1 | O=C(Nc1ncco1)c1ccnc(Oc2cccc(C(F)(F)F)c2)c1 [Compound 103, N-(Oxazol-2-yl)-2-(3-(trifluoromethyl)phenoxy)isonicotinamide] | – | – | – | MIC (S. aureus ATCC29213): 1 µg/mL (≈ 2.86 µM); MIC (E. faecium NCTC7171): 1 µg/mL (≈ 2.86 µM)
2 | O=C(Nc1ncco1)c1ccnc(Oc2ccc(OC(F)(F)F)cc2)c1 [Compound 104, N-(Oxazol-2-yl)-2-(4-(trifluoromethoxy)phenoxy)isonicotinamide] | – | – | – | MIC (S. aureus ATCC29213): 1 µg/mL (≈ 2.74 µM); MIC (E. faecium NCTC7171): 16 µg/mL (≈ 43.8 µM)
3 | O=C(Nc1ncco1)c1ccnc(Oc2cccc(Cl)c2)c1 [Compound 100, 2-(3-Chlorophenoxy)-N-(oxazol-2-yl)isonicotinamide] | – | – | – | MIC (S. aureus ATCC29213): 1 µg/mL (≈ 3.17 µM); MIC (E. faecium NCTC7171): 2 µg/mL (≈ 6.33 µM)
4 | O=C(Nc1ncco1)c1ccnc(Oc2cccc(OC(F)(F)F)c2)c1 [Compound 105, N-(Oxazol-2-yl)-2-(3-(trifluoromethoxy)phenoxy)isonicotinamide] | – | – | – | MIC (S. aureus ATCC29213): 1 µg/mL (≈ 2.74 µM); MIC (E. faecium NCTC7171): 16 µg/mL (≈ 43.8 µM)
5 | C#CCCCCCOC(=O)c1ccc2oc(NC(=O)c3cc(Oc4ccc(F)c(F)c4)ccn3)nc2c1 [Compound 117, Hept-6-yn-1-yl 2-(4-(3,4-difluorophenoxy)picolinamido)benzo[d]oxazole-5-carboxylate] | – | – | – | MIC (S. aureus ATCC29213): 32 µg/mL (≈ 63.3 µM); MIC (E. faecium NCTC7171): 128 µg/mL (≈ 253 µM)
6 | O=C(Nc1ncc(C(=O)OCCCCCCO)o1)c1ccnc(-c2ccc(Cl)c(Cl)c2)c1 [Compound 26, 6-Hydroxyhexyl 2-(2-(3,4-dichlorophenyl)isonicotinamido)oxazole-5-carboxylate] | – | – | – | MIC (C. difficile; [3]): 0.25 µg/mL (≈ 0.523 µM); MIC (MRSA (NRS70, NRS119); [4]): 0.25 µg/mL (≈ 0.523 µM)
7 | O=C(Nc1ncc(C(=O)N2CCOCC2)o1)c1ccnc(-c2ccc(Cl)c(Cl)c2)c1 [Compound 29, 2-(3,4-Dichlorophenyl)-N-(5-(morpholine-4-carbonyl)oxazol-2-yl)isonicotinamide] | – | – | – | MIC (C. difficile; [3]): 0.125 µg/mL (≈ 0.279 µM); MIC (MRSA (NRS70, NRS119); [4]): 2 µg/mL (≈ 4.47 µM)
8 | O=C(Nc1ncco1)c1ccnc(Oc2ccc(F)c(Cl)c2)c1 [Compound 101, 2-(3-Chloro-4-fluorophenoxy)-N-(oxazol-2-yl)isonicotinamide] | – | – | – | MIC (S. aureus ATCC29213): 1 µg/mL (≈ 3 µM); MIC (E. faecium NCTC7171): 2 µg/mL (≈ 5.99 µM)
9 | CCOC(=O)c1coc(NC(=O)c2ccnc(-c3ccc(Cl)c(Cl)c3)c2)n1 [Compound 15, Ethyl 2-(2-(3,4-dichlorophenyl)isonicotinamido)oxazole-4-carboxylate] | – | – | – | MIC (C. difficile; [3]): 0.125 µg/mL (≈ 0.308 µM); MIC (MRSA (NRS70, NRS119); [4]): 1 µg/mL (≈ 2.46 µM)
10 | CC(C)(C)OC(=O)N1CCN(C(=O)c2cnc(NC(=O)c3ccnc(-c4ccc(Cl)c(Cl)c4)c3)o2)CC1 [Compound 30, Tert-butyl 4-(2-(2-(3,4-Dichlorophenyl)isonicotinamido)oxazole-5-carbonyl) piperazine-1-carboxylate] | – | – | – | MIC C. difficile (C. difficile; Table 2 (SAR^1)): 0.25 µg/mL (≈ 0.458 µM); MIC MRSA (MRSA (NRS70, NRS119); NRS70 strain, Table 2 (SAR^1)): 2 µg/mL (≈ 3.66 µM)
11 | O=C(Nc1ncco1)c1cc(-c2cccc(OC(F)(F)F)c2)ccn1 [Compound 96, N-(Oxazol-2-yl)-4-(3-(trifluoromethoxy)phenyl)picolinamide] | 0.5 (≈ 1.43 µM) | ≥ 256 | ≥512 | –
12 | CC(C)(C)OC(=O)NCCCCCCOC(=O)c1cnc(NC(=O)c2ccnc(-c3ccc(Cl)c(Cl)c3)c2)o1 [Compound 27, 6-((Tert-butoxycarbonyl)amino)hexyl 2-(2-(3,4-dichlorophenyl)isonicotinamido) oxazole-5-carboxylate] | – | – | – | MIC C. difficile (C. difficile; Table 2 (SAR^1)): 8 µg/mL (≈ 13.9 µM); MIC MRSA (MRSA (NRS70, NRS119); NRS70 strain, Table 2 (SAR^1)): 16 µg/mL (≈ 27.7 µM)
13 | O=C(Nc1ncco1)c1ccnc(Oc2ccc(Cl)c(F)c2)c1 [Compound 102, 2-(4-Chloro-3-fluorophenoxy)-N-(oxazol-2-yl)isonicotinamide] | – | – | – | MIC (S. aureus ATCC29213): 1 µg/mL (≈ 3 µM); MIC (E. faecium NCTC7171): 2 µg/mL (≈ 5.99 µM)
14 | O=C(Nc1ncco1)c1ccnc(-c2cccc(Cl)c2)n1 [Compound 84, 2-(3-Chlorophenyl)-N-(oxazol-2-yl)pyrimidine-4-carboxamide] | 4 (≈ 13.3 µM) | 4 (≈ 13.3 µM) | 1 | –
15 | CC(C)(C)OC(=O)Nc1cccc(-c2cc(C(=O)Nc3ncco3)ccn2)c1 [Compound 59, Tert-butyl (3-(4-(oxazol-2-ylcarbamoyl)pyridin-2-yl)phenyl)carbamate] | 8 (≈ 21 µM) | 4 (≈ 10.5 µM) | 0.5 | –
16 | O=C(Nc1ncco1)c1cccc(-c2cccc(Cl)c2)n1 [Compound 76, 6-(3-Chlorophenyl)-N-(oxazol-2-yl)picolinamide] | 8 (≈ 26.7 µM) | 4 (≈ 13.3 µM) | 0.5 | –
17 | O=C(Nc1nccs1)c1ccnc(-c2ccc(Cl)c(Cl)c2)c1 [Compound 16, 2-(3,4-Dichlorophenyl)-N-(thiazol-2-yl)isonicotinamide] | – | – | – | MIC (C. difficile; [3]): ≥ 128 µg/mL; MIC (C. difficile; [5]): ≥ 64 µg/mL; MIC (MRSA (NRS70, NRS119); [6]): ≥ 64 µg/mL; MIC (MRSA (NRS70, NRS119); [4]): ≥ 256 µg/mL
18 | CC(C)(C)OC(=O)Nc1ccc(-c2cc(C(=O)Nc3ncco3)ccn2)cc1 [Compound 58, Tert-butyl (4-(4-(oxazol-2-ylcarbamoyl)pyridin-2-yl)phenyl)carbamate] | 8 (≈ 21 µM) | 8 (≈ 21 µM) | 1 | –
19 | O=C(Nc1ncco1)c1cccc(-c2ccc(F)cc2)n1 [Compound 79, 6-(4-Fluorophenyl)-N-(oxazol-2-yl)picolinamide] | ≥ 16 | 32 (≈ 113 µM) | ≤ 2 | –
20 | O=C(Nc1ccon1)c1ccnc(-c2ccc(Cl)c(Cl)c2)c1 [Compound 18, 2-(3,4-Dichlorophenyl)-N-(isoxazol-3-yl)isonicotinamide] | – | – | – | MIC (C. difficile; [3]): ≥ 128 µg/mL; MIC (C. difficile; [5]): ≥ 64 µg/mL; MIC (MRSA (NRS70, NRS119); [6]): ≥ 64 µg/mL; MIC (MRSA (NRS70, NRS119); [4]): ≥ 256 µg/mL
21 | O=C(Nc1nc2ncccc2o1)c1ccnc(-c2ccc(Cl)c(Cl)c2)c1 [Compound 22, 2-(3,4-Dichlorophenyl)-N-(oxazolo[4,5-b]pyridin-2-yl)isonicotinamide] | – | – | – | MIC (C. difficile; [3]): 0.0625 µg/mL (≈ 0.162 µM); MIC (MRSA (NRS70, NRS119); [4]): 0.25 µg/mL (≈ 0.649 µM)

Continued, in another order:

Row | MIC (C. difficile; [1]) [µg/mL] | MIC (MRSA (NRS70, NRS119); [2]) [µg/mL] | SMILES | Selectivity (C. difficile) | further results
22 | 1 (≈ 3.32 µM) | 2 (≈ 6.64 µM) | O=C(Nc1ncco1)c1ccnc(-c2ccc(F)c(F)c2)c1 [Compound 35, 2-(3,4-Difluorophenyl)-N-(oxazol-2-yl)isonicotinamide] | 2 | MIC (S. aureus ATCC29213): 4 µg/mL (≈ 13.3 µM); MIC (E. faecium NCTC7171): 1 µg/mL (≈ 3.32 µM)
23 | 4 (≈ 13.3 µM) | 128 (≈ 427 µM) | O=C(Nc1ncco1)c1cc(-c2ccc(Cl)cc2)ccn1 [Compound 88, 4-(4-Chlorophenyl)-N-(oxazol-2-yl)picolinamide] | 32 | –
24 | 4 (≈ 14.1 µM) | 1 (≈ 3.53 µM) | O=C(Nc1ncco1)c1ccnc(-c2ccccc2F)c1 [Compound 38, 2-(2-Fluorophenyl)-N-(oxazol-2-yl)isonicotinamide] | 0.25 | –
25 | 2 (≈ 6.45 µM) | ≥ 256 | O=C(Nc1ncco1)c1ccnc(-c2cccc([N+](=O)[O-])c2)c1 [Compound 50, 2-(3-Nitrophenyl)-N-(oxazol-2-yl)isonicotinamide] | ≥128 | –
26 | 2 (≈ 6.3 µM) | 8 (≈ 25.2 µM) | O=C(Nc1ncco1)c1cncc(-c2ccc(F)c(Cl)c2)c1 [Compound 81, 5-(3-Chloro-4-fluorophenyl)-N-(oxazol-2-yl)nicotinamide] | 4 | –
27 | 4 (≈ 12.6 µM) | 16 (≈ 50.6 µM) | O=C(Nc1ncco1)c1ccnc(-c2cnc3ccccc3c2)c1 [Compound 61, N-(Oxazol-2-yl)-2-(quinolin-3-yl)isonicotinamide] | 4 | –
28 | 4 (≈ 13.3 µM) | 8 (≈ 26.6 µM) | O=C(Nc1ncco1)c1cncc(-c2ccc(F)c(F)c2)c1 [Compound 82, 5-(3,4-Difluorophenyl)-N-(oxazol-2-yl)nicotinamide] | 2 | –
29 | 0.25 (≈ 0.745 µM) | 2 (≈ 5.96 µM) | O=C(Nc1ncco1)c1cc(-c2ccc(Cl)c(F)c2)ncc1F [Compound 74, 2-(4-Chloro-3-fluorophenyl)-5-fluoro-N-(oxazol-2-yl)isonicotinamide] | 8 | –
30 | 0.5 (≈ 1.49 µM) | 2 (≈ 5.96 µM) | O=C(Nc1ncco1)c1cc(-c2ccc(F)c(Cl)c2)ncc1F [Compound 73, 2-(3-Chloro-4-fluorophenyl)-5-fluoro-N-(oxazol-2-yl)isonicotinamide] | 4 | –
31 | 4 (≈ 13.3 µM) | 8 (≈ 26.7 µM) | O=C(Nc1ncco1)c1ccnc(-c2ccccc2Cl)c1 [Compound 34, 2-(2-Chlorophenyl)-N-(oxazol-2-yl)isonicotinamide] | 2 | –
32 | 0.5 (≈ 1.66 µM) | 8 (≈ 26.6 µM) | O=C(Nc1ncco1)c1ccnc(-c2cc(F)cc(F)c2)c1 [Compound 42, 2-(3,5-Difluorophenyl)-N-(oxazol-2-yl)isonicotinamide] | 16 | –
